Test results published in ChEMBL document CHEMBL1142863, “A potent, covalent inhibitor of orotidine 5'-monophosphate decarboxylase with antimalarial activity” (J Med Chem, 2007).
≈ marks a conversion by molar mass, not a printed value. Calls of active or inactive are those of the source. No cut-off for these calls is given here.

How the values were obtained:
[1] = Solubility in distilled water; format: physicochemical
Plasmodium falciparum = assay: Antiparasitic activity against chloroquine-resistant Plasmodium falciparum ItG after 48 hrs by SYBR-Green assay; format: functional, organism-based
[2] = Dissociation constant, pKa of the compound; format: physicochemical
[3] = biological target: Orotidine 5'-phosphate decarboxylase (Methanobacterium thermoautotrophicum) (UniProt O26232); assay: Inhibition of Methanobacterium thermoautotrophicum ODCase at 250 uM in less than 30 mins; conditions: Methanothermobacter thermautotrophicus
[4] = biological target: Orotidine 5'-phosphate decarboxylase (Methanobacterium thermoautotrophicum) (UniProt O26232); assay: Inhibition of Methanobacterium thermoautotrophicum ODCase at 50 uM after 8 hrs; design: scale not given: the % may be the effect or the level left; conditions: Methanothermobacter thermautotrophicus
[5] = biological target: T1, Orotidine phosphate decarboxylase (Plasmodium falciparum) (UniProt Q8T6J6); assay: Inhibition of Plasmodium falciparum ODCase
T1 sequence (whole entry): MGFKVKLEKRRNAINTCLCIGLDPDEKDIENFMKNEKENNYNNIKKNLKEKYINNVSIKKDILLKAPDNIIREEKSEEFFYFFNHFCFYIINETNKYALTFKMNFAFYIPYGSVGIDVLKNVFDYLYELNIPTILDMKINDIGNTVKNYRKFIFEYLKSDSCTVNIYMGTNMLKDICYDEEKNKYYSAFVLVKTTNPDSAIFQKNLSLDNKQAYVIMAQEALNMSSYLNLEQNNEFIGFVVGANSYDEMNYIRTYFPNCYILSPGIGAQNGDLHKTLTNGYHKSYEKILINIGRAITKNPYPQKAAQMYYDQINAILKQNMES

Sequence of Orotidine 5'-phosphate decarboxylase (Methanobacterium thermoautotrophicum) (O26232 whole entry, looked up): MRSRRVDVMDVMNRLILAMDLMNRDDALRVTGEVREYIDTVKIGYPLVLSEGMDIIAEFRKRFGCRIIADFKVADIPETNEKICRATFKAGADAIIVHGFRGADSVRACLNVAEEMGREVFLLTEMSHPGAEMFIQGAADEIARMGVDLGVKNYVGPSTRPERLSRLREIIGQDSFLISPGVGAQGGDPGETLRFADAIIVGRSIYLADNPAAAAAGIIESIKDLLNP

SMILES | solubility [1] [µg/mL] | IC50 (Plasmodium falciparum) [µM] | pKa [2] | Activity [3] | Activity [4] [%] | Activity [5]
O=c1cc(I)n([C@@H]2O[C@H](CO)[C@@H](O)[C@H]2O)c(=O)[nH]1 | 4320 (≈ 11.7 mM) | 4.4 | 8.42 | – | – | –
O=c1cc(I)n([C@@H]2O[C@H](COP(=O)(O)O)[C@@H](O)[C@H]2O)c(=O)[nH]1 | – | – | – | Active | > 60 | Active
